Results published in patent US20240342292A1, “Compounds for the Degradation of EGFR Kinase” (BeiGene Switzerland GmbH, priority 2021, published 2024).

Columns and labels:
[1] = biological target: T1, L858R/T790M/C797S EGFR (Homo sapiens, UniProt P00533, C797S/L858R/T790M); assay: EGFR degradation HTRF assay in H1975-clone #25 (LTC) cells; format: cell-based; conditions: 16h treatment; for DC50: H1975 # 25-LTC (L858R/T790M/C797S), HTRF; for Dmax: NCI-H1975, H1975 # 25-LTC (L858R/T790M/C797S), maximum percentage of degradation
T1 construct: expressed in transfected cells; host or cells: H1975 clone #25 (lentiviral over-expression, endogenous EGFR knocked out by sgRNA)
Outline: (§1)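 Remaining EGFR protein was measured by HTRF (337 nm excitation, 665/620 nm emission) in lysates after overnight antibody incubation. Cells had been exposed for 16 h to an 8-point, 5-fold series starting at 10 uM, and DC50 values were fitted with a Hill equation.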

[2] = test system: Del19/T790M/C797S EGFR; assay: EGFR degradation HTRF assay in H1975-clone #28 (DTC) cells; format: cell-based; conditions: H1975 # 28 DTC (Del19/T790M/C797S), 16h treatment; for DC50: HTRF; for Dmax (%): maximum percentage of degradation
Outline: as §1

T1 sequence (P00533 25-1210 T790M/C797S/L858R): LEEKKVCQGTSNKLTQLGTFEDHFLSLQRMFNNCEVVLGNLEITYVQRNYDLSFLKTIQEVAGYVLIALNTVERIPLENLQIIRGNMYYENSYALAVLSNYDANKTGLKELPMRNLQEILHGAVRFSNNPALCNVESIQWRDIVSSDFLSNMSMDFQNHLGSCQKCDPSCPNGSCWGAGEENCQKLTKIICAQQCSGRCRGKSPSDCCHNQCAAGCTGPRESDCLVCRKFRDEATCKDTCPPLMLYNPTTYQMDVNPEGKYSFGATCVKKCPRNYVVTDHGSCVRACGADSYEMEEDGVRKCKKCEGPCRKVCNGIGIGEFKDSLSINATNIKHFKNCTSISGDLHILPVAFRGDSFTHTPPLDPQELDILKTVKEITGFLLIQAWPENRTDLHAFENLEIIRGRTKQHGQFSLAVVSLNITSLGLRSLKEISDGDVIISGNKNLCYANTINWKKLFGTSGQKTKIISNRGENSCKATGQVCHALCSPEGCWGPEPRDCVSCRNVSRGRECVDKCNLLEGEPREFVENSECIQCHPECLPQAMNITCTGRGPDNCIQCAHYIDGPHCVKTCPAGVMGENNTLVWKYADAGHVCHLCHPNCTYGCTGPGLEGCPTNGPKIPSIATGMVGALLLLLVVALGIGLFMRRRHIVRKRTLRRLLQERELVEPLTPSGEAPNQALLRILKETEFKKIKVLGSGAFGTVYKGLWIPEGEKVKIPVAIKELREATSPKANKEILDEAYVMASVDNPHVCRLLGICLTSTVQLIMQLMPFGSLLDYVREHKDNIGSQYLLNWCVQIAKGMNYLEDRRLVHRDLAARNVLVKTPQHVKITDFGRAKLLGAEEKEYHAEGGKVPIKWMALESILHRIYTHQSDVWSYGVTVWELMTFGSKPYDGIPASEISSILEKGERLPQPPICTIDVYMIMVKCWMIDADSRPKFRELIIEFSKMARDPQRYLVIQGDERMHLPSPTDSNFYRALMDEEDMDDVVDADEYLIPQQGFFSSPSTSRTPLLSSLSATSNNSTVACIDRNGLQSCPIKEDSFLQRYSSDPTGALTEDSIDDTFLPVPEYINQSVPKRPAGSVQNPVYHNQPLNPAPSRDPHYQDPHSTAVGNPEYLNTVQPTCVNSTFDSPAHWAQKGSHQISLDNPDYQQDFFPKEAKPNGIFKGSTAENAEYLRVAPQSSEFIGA

SMILES | DC50 [1] | Dmax [1] | DC50 [2] | Dmax (%) [2]
COC[C@@H]1CN(c2ccc3c(c2)N2C[C@H](C)CCCOc4c(cnn4C)-c4cc(cc(C)n4)C(=O)/N=C/2N3)CCN1C1CCN(c2cc(F)c([C@H]3CCC(=O)NC3=O)c(F)c2)CC1 [Example 397, (R)-3-(2,6-difluoro-4-(4-((S)-2-(methoxymethyl)-4-((R,E)-1^1,2^6,7-trimethyl-3-oxo-5^2,5^3-dihydro-1^1H,5^1H-1i-oxa-4-aza-5(2,1)-benzo[d]imidazola-2(2,4)-pyridina-1(4,5)-pyrazolacycloundecaphane-5-yl)piperazin-1-yl)piperidin-1-yl)phenyl)piperidine-2,6-dione] | 2.01 nM | 88.3% | 2.13 nM | 76.68%
Cc1cc2cc(n1)-c1cnn(C)c1OCCC[C@@H](C)CN1/C(=N/C2=O)Nc2ccc(N3C[C@@H](C)N(C4CCN(c5cc(F)c([C@H]6CCC(=O)NC6=O)c(F)c5)CC4)C[C@H]3C)cc21 [Example 398, (R)-3-(4-(4-((2R,5R)-2,5-dimethyl-4-((R,E)-1^1,2^6,7-trimethyl-3-oxo-5^2,53-dihydro-1^1H,5^1H-11-oxa-4-aza-5(2,1)-benzo[d]imidazola-2(2,4)-pyridina-1(4,5)-pyrazolacycloundecaphane-5^6-yl)piperazin-1-yl)piperidin-1-yl)-2,6-difluorophenyl)piperidine-2,6-dione] | 4.7 nM | 90.3% | 4.5 nM | 72.53%
Cc1cc2cc(n1)-c1cnn(C)c1OCCC[C@@H](C)CN1/C(=N/C2=O)Nc2ccc(N3CCN(CCCNc4cc(F)c([C@H]5CCC(=O)NC5=O)c(F)c4)CC3)cc21 [Example 400, (R)-3-(2,6-difluoro-4-((3-(4-((R,E)-1^1,2^6,7-trimethyl-3-oxo-5^2,5^3-dihydro-1^1H,5^1H-11-oxa-4-aza-5(2,1)-benzo[d]imidazola-2(2,4)-pyridina-1(4,5)-pyrazolacycloundecaphane-5^6-yl)piperazin-1-yl)propyl)amino)phenyl)piperidine-2,6-dione] | 0.915 nM | 89.8% | 0.628 nM | 79.74%
Cc1cc2cc(n1)-c1cnn(C)c1OCCC[C@@H](C)CN1/C(=N/C2=O)Nc2ccc(N3CCC(NC4CCN(c5cc(F)c([C@H]6CCC(=O)NC6=O)c(F)c5)CC4)CC3)cc21 [Example 401, (R)-3-(2,6-difluoro-4-(4-((1-((R,E)-1^1,2^6,7-trimethyl-3-oxo-5^2,5^3-dihydro-1^1H,5^1H-11-oxa-4-aza-5(2,1)-benzo[d]imidazola-2(2,4)-pyridina-1(4,5)-pyrazolacycloundecaphane-5^6-yl)piperidin-4-yl)amino)piperidin-1-yl)phenyl)piperidine-2,6-dione] | 1.37 nM | 81.1% | 3.18 nM | 70.19%
Cc1cc2cc(n1)-c1cnn(C)c1OCCC[C@@H](C)CN1/C(=N/C2=O)Nc2ccc(N3CCC(C(=O)N4CC(Oc5cc(F)c([C@H]6CCC(=O)NC6=O)c(F)c5)C4)CC3)cc21 [Example 403, (R)-3-(2,6-difluoro-4-((1-(1-((R,E)-1^1,2^6,7-trimethyl-3-oxo-5^2,5^3-dihydro-1^1H,5^1H-11-oxa-4-aza-5(2,1)-benzo[d]imidazola-2(2,4)-pyridina-1(4,5)-pyrazolacycloundecaphane-5^6-yl)piperidine-4-carbonyl)azetidin-3-yl)oxy)phenyl)piperidine-2,6-dione] | 1.07 nM | 87.5% | 0.857 nM | 82.98%
Cc1cc2cc(n1)-c1cnn(C)c1OCCC[C@@H](C)CN1/C(=N/C2=O)Nc2ccc(N3CCC(C(=O)N4CC(Nc5cc(F)c([C@H]6CCC(=O)NC6=O)c(F)c5)C4)CC3)cc21 [Example 404, (R)-3-(2,6-difluoro-4-((1-(1-((R,E)-1^1,2^6,7-trimethyl-3-oxo-5^2,5^3-dihydro-1^1H,5^1H-li-oxa-4-aza-5(2,1)-benzo[d]imidazola-2(2,4)-pyridina-1(4,5)-pyrazolacycloundecaphane-5^4-yl)piperidine-4-carbonyl)azetidin-3-yl)amino)phenyl)piperidine-2,6-dione] | 0.94 nM | 88.5% | 1.69 nM | 83.57%
Cc1cc2cc(n1)-c1cnn(C)c1OCCC[C@@H](C)CN1/C(=N/C2=O)Nc2ccc(N3CC4(CCN(CC5CN(c6cc(F)c([C@H]7CCC(=O)NC7=O)c(F)c6)C5)CC4)CC3=O)cc21 [Example 406, (R)-3-(2,6-difluoro-4-(3-((3-oxo-2-((R,E)-1^1,2^6,7-trimethyl-3-oxo-5^2,5^3-dihydro-1^1H,5^1H-11-oxa-4-aza-5(2,1)-benzo[d]imidazola-2(2,4)-pyridina-1(4,5)-pyrazolacycloundecaphane-5^6-yl)-2,8-diazaspiro[4.5]decan-8-yl)methyl)azetidin-1-yl)phenyl)piperidine-2,6-dione] | 1.65 nM | 89.6% | 1.09 nM | 85.15%
Cc1cc2cc(n1)-c1cnn(C)c1OCCC[C@@H](C)CN1/C(=N/C2=O)Nc2ccc(N3CCN(CCN(C)c4cc(F)c([C@H]5CCC(=O)NC5=O)c(F)c4)CC3)cc21 [Example 407, (R)-3-(2,6-difluoro-4-(methyl(2-(4-((R,E)-1^1,2^6,7-trimethyl-3-oxo-5^2,5^3-dihydro-1^1H,5^1H-11-oxa-4-aza-5(2,1)-benzo[d]imidazola-2(2,4)-pyridina-1(4,5)-pyrazolacycloundecaphane-5^6-yl)piperazin-1-yl)ethyl)amino)phenyl)piperidine-2,6-dione] | 2.29 nM | 87.9% | 2.09 nM | 78.49%

Compounds with a lower DC50 [1], results first:

DC50 [1] | Dmax [1] | DC50 [2] | SMILES | Dmax (%) [2]
0.633 nM | 88.3% | 0.525 nM | Cc1cc2cc(n1)-c1cnn(C)c1OCCC[C@@H](C)CN1/C(=N/C2=O)Nc2ccc(N3CCC(C(=O)N4CCC(Nc5cc(F)c([C@H]6CCC(=O)NC6=O)c(F)c5)CC4)CC3)cc21 [Example 402, (R)-3-(2,6-difluoro-4-((1-(1-((R,E)-1^1,2^6,7-trimethyl-3-oxo-5^2,53-dihydro-1^1H,5^1H-11-oxa-4-aza-5(2,1)-benzo[d]imidazola-2(2,4)-pyridina-1(4,5)-pyrazolacycloundecaphane-5^6-yl)piperidine-4-carbonyl)piperidin-4-yl)amino)phenyl)piperidine-2,6-dione] | 82.56%
0.677 nM | 80.5% | 1.26 nM | Cc1cc2cc(n1)-c1cnn(C)c1OCCC[C@@H](C)CN1/C(=N/C2=O)Nc2ccc(N3CCN(CCN(C)c4ccc5c(c4)CN([C@H]4CCC(=O)NC4=O)C5=O)CC3)cc21 [Example 405, (S)-3-(5-(methyl(2-(4-((R,E)-1^1,2^6,7-trimethyl-3-oxo-5^2,5^3-dihydro-1^1H,5^1H-11-oxa-4-aza-5(2,1)-benzo[d]imidazola-2(2,4)-pyridina-1(4,5)-pyrazolacycloundecaphane-5^6-yl)piperazin-1-yl)ethyl)amino)-1-oxoisoindolin-2-yl)piperidine-2,6-dione] | 78.67%
0.517 nM | 60.7% | 3.2 nM | Cc1cc2cc(n1)-c1cnn(C)c1OCCC[C@@H](C)CN1/C(=N/C2=O)Nc2ccc(N3CCN(C4CCN(c5cc(F)c([C@H]6CCC(=O)NC6=O)c(F)c5)CC4)CC34CC4)cc21 [Example 418, (R)-3-(2,6-difluoro-4-(4-(4-((R,E)-1^1,2^6,7-trimethyl-3-oxo-5^2,5^3-dihydro-1^1H,5^1H-11-oxa-4-aza-5(2,1)-benzo[d]imidazola-2(2,4)-pyridina-1(4,5)-pyrazolacycloundecaphane-5^6-yl)-4,7-diazaspiro[2.5]octan-7-yl)piperidin-1-yl)phenyl)piperidine-2,6-dione] | 91.56%
0.604 nM | 87.5% | 0.639 nM | Cc1cc2cc(n1)-c1cnn(C)c1OCCC[C@@H](C)CN1/C(=N/C2=O)Nc2ccc(N3CCN(C4CCN(c5cc(F)c([C@H]6CCC(=O)NC6=O)c(F)c5)CC4)[C@@H](CO)C3)cc21 [Example 421, (R)-3-(2,6-difluoro-4-(4-((R)-2-(hydroxymethyl)-4-((R,E)-1^1,2^6,7-trimethyl-3-oxo-5^2,5^3-dihydro-1^1H,5^1H-11-oxa-4-aza-5(2,1)-benzo[d]imidazola-2(2,4)-pyridina-1(4,5)-pyrazolacycloundecaphane-5^6-yl)piperazin-1-yl)piperidin-1-yl)phenyl)piperidine-2,6-dione] | 84.08%
0.856 nM | 92.2% | 0.652 nM | Cc1cc2cc(n1)-c1cnn(C)c1OCCC[C@@H](C)CN1/C(=N/C2=O)Nc2ccc(N3CCN(CC4CN(c5cc(F)c([C@H]6CCC(=O)NC6=O)c(F)c5)C4)[C@@H](CO)C3)cc21 [Example 422, (R)-3-(2,6-difluoro-4-(3-(((R)-2-(hydroxymethyl)-4-((R,E)-1^1,2^6,7-trimethyl-3-oxo-5^2,5^3-dihydro-1^1H,5^1H-li-oxa-4-aza-5(2,1)-benzo[d]imidazola-2(2,4)-pyridina-1(4,5)-pyrazolacycloundecaphane-5^6-yl)piperazin-1-yl)methyl)azetidin-1-yl)phenyl)piperidine-2,6-dione] | 83.55%
